The results in this text go back to patent US20230159510A1, “NOVEL PRMT5 INHIBITORS” (AMGEN INC., priority 2020, published 2023).

The test system of assay [1] is HCT116 MTAP null cells. The assay is described as follows: HCT116 proliferation assay, MTAP null cells (CellTiter-Glo, 6 days). The class given is cell-based. To be noted: read-out: Protif_ HCT116-MTAP null IC50. In short, it runs like this: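 Cells were plated in RPMI 1640 with 10% fetal bovine serum and left overnight at 37° C and 5% CO2. Compound was then added as an 8- or 9-point 1:3 dilution series from a top concentration of 1 or 10 µM, alongside a DMSO-only control. Viability was read by luminescence.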
Background: ATP-based viability assays read luminescence as a measure of living cells.

Assay [2] concerns the target PRMT5/MEP50 (Homo sapiens, UniProt O14744). The assay is described as follows: MTase-Glo methyl transferase assay, Method B (FL-Histone H2A, 1 µM MTA, 1 h pre-incubation). The class given is biochemical. On the set-up: purchased Reaction Biology Corp RD-11-292. Conditions: read-out: PRMT5 MTase Glo Ki (nM, Meth. B). The method, then: Method B: The PRMT5 inhibitory activity of test compounds was determined using the MTase-Glo™ assay (Promega), which monitors the product (S-adenosyl homocysteine or SAH) of methyltransferase reactions. The PRMT5 MTase-Glo assay was conducted in a 384-well white ProxiPlate (PerkinElmer) in a total volume of 16 µL. The PRMT5 enzymatic reaction (in 8 µL) contained 4 nM PRMT5/MEP50 (Reaction Biology Corp, catalog no.: RD-11-292), 5 µM S-adenosyl methionine (SAM, Promega), 2.5 µM FL-Histone H2A (BPS Bioscience, catalog no.: 52021), 1 µM 5′-methylthioadenosine (MTA, Sigma) and ½ log serially diluted compounds in a reaction buffer of 50 mM Tris (pH 8.0), 50 mM NaCl, 0.01% Tween 20, 0.01% BSA, and 1 mM TCEP. Test compounds were pre-incubated with PRMT5/MEP50, SAM, and MTA for 1 hour before addition of FL-Histone H2A to initiate the PRMT5 reaction. The reaction was allowed to proceed for 20 hours at room temperature and was then terminated by addition of 1 µL of 9X MTase-Glo™ Reagent (Promega). After a 30-minute incubation at room temperature, 8 µL of MTase-Glo™ Detection Solution (Promega) was added and the plate was incubated at room temperature for an additional 30 minutes. The light signal corresponding to the amount of SAH produced by the PRMT5 reaction was subsequently measured using an Envision multimode reader (PerkinElmer). IC50 and KI values were obtained by analyzing dose-response curves using GraphPad Prism®.

Read-outs that look alike come from different tables or passages of the source.

PRMT5/MEP50, sequence (O14744 2-637 limits assumed): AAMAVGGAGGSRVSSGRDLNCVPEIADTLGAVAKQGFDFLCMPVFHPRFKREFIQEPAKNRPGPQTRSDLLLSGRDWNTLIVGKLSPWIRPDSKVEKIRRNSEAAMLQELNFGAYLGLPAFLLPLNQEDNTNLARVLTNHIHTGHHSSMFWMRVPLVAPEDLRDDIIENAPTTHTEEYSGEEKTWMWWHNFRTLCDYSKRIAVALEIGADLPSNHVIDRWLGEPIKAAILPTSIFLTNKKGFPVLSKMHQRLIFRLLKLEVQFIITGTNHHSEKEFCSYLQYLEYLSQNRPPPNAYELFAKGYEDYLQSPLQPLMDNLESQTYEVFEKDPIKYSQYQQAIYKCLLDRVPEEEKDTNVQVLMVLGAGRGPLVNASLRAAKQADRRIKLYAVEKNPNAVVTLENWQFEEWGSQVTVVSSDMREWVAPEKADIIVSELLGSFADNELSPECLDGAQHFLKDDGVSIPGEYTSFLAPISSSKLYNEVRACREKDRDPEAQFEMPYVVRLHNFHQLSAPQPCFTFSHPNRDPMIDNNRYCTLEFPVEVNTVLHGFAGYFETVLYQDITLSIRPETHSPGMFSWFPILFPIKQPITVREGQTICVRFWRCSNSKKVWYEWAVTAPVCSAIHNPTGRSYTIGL
PRMT5/MEP50, sequence (Q9BQA1 2-342 partner limits assumed): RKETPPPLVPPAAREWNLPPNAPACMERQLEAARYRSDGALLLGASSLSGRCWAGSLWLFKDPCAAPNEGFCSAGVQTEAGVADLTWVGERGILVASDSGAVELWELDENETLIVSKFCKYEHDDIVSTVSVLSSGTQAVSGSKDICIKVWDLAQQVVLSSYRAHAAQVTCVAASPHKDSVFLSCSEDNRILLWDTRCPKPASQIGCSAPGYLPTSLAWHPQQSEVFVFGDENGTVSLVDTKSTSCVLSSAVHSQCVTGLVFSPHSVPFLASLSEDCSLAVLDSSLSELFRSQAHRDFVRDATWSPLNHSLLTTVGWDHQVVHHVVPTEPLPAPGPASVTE

For `Cc1cc2cc(C(=O)N(Cc3ccc(C(F)(F)F)cn3)C(C)c3ccc4c(c3)NC(=O)CO4)ccc2nc1N` (centres unmarked) [Example 625, 2-amino-3-methyl-N-(1-(3-oxo-3,4-dihydro-2H-benzo[b][1,4]oxazin-6-yl)ethyl)-N-((5-(trifluoromethyl)pyridin-2-yl)methyl)quinoline-6-carboxamide], in assay [1] (HCT116-MTAP null, 144 h), the IC50 (as a rule, the concentration that gives 50% inhibition) worked out at 180 nM. Besides, in assay [2], the Ki (as a rule, the dissociation constant of the complex between target and ligand, obtained from inhibition or displacement) came to 1.99 nM.
In the case of `Cc1cc2cc(C(=O)N(Cc3cncnc3)Cc3ccc(C(F)(F)F)cn3)ccc2nc1N` [Example 626, 2-amino-3-methyl-N-(pyrimidin-5-ylmethyl)-N-((5-(trifluoromethyl)pyridin-2-yl)methyl)quinoline-6-carboxamide], the Ki in assay [2] worked out at 42.7 nM.
With `Cc1cc2cc(C(=O)N(Cc3ccc(C(F)(F)F)cn3)Cc3ccc[nH]c3=O)ccc2nc1N` [Example 627, 2-amino-3-methyl-N-((2-oxo-1,2-dihydropyridin-3-yl)methyl)-N-((5-(trifluoromethyl)pyridin-2-yl)methyl)quinoline-6-carboxamide], the IC50 in assay [1] (HCT116-MTAP null, 144 h) was 360 nM. For the same compound, in assay [2], the Ki worked out at 2.8 nM.
For the compound `Cc1cc2cc(C(=O)N(CCC3CCC3)Cc3ccc(C(F)(F)F)cn3)ccc2nc1N` [Example 629, 2-amino-N-(2-cyclobutylethyl)-3-methyl-N-((5-(trifluoromethyl)pyridin-2-yl)methyl)quinoline-6-carboxamide], the IC50 in assay [1] (HCT116-MTAP null, 144 h) was 770 nM. Further, the Ki in assay [2] stood at 5.93 nM.
Taken in the same sequence, the figures for `COc1cccc2c1OCCC2N(Cc1ccc(C(F)(F)F)cn1)C(=O)c1ccc2nc(N)c(C)cc2c1` (centres unmarked) [Example 630, 2-amino-N-(8-methoxychroman-4-yl)-3-methyl-N-[[5-(trifluoromethyl)-2-pyridyl]methyl] quinoline-6-carboxamide] were 33 nM and 4.58 nM.
In the same order, the values of `Cc1cc2cc(C(=O)N(Cc3ccc(C(F)(F)F)cn3)C3CCCc4c[nH]nc43)ccc2nc1N` (centres unmarked) [Example 631, 2-amino-3-methyl-N-(4,5,6,7-tetrahydro-2H-indazol-7-yl)-N-[[5-(trifluoromethyl)-2-pyridyl]methyl] quinoline-6-carboxamide] are 28 nM and 7.14 nM.
Taken in the same sequence, the figures for `Cc1cc2cc(C(=O)N(Cc3ccc(C(F)(F)F)cn3)C(C)C3CCCO3)ccc2nc1N` (centres unmarked) [Example 632, 2-amino-3-methyl-N-(1-tetrahydrofuran-2-ylethyl)-N-[[5-(trifluoromethyl)-2-pyridyl]methyl] quinoline-6-carboxamide] were 340 nM and 5.3 nM.
With `Cc1cc2cc(C(=O)N(Cc3ccc(C(F)(F)F)cn3)C3CCCC4OCCC43)ccc2nc1N` (centres unmarked) [Example 633, N-(2,3,3a,4,5,6,7,7a-octahydrobenzofuran-4-yl)-2-amino-3-methyl-N-[[5-(trifluoromethyl)-2-pyridyl]methyl] quinoline-6-carboxamide], the IC50 in assay [1] (HCT116-MTAP null, 144 h) was found to be 330 nM. The Ki in assay [2] came out at 4.8 nM.
Taken in the same sequence, the figures for `Cc1cc2cc(C(=O)N(Cc3ccc(C(F)(F)F)cn3)C(C)CC(C)C)ccc2nc1N` (centres unmarked) [Example 634, 2-amino-N-(1,3-dimethylbutyl)-3-methyl-N-[[5-(trifluoromethyl)-2-pyridyl]methyl] quinoline-6-carboxamide] were 930 nM and 6.84 nM.
`Cc1cc2cc(C(=O)N(Cc3ccc(C(F)(F)F)cn3)Cc3ccnc4[nH]ccc34)cnc2nc1N` [Example 635, 7-amino-6-methyl-N-(1H-pyrrolo[2,3-b]pyridin-4-ylmethyl)-N-[[5-(trifluoromethyl)-2-pyridyl]methyl]-1,8-naphthyridine-3-carboxamide]: the IC50 in assay [1] came out at 18 nM. For the same compound, the Ki in assay [2] amounted to 1.29 nM.
Regarding `Cc1cc2cc(C(=O)N(Cc3ccc4c(c3)CNC4=O)Cc3ccc(C(F)(F)F)cn3)ccc2nc1N` [Example 636, 2-amino-3-methyl-N-[(1-oxoisoindolin-5-yl)methyl]-N-[[5-(trifluoromethyl)-2-pyridyl]methyl] quinoline-6-carboxamide], the IC50 in assay [1] (HCT116-MTAP null, 144 h) amounted to 890 nM. The Ki in assay [2] amounted to 2.3 nM.
In the same order, the values of `Cc1cc2cc(C(=O)N(Cc3ccc(C(N)=O)nc3)Cc3ccc(C(F)(F)F)cn3)ccc2nc1N` [Example 637, 2-amino-N-[(6-carbamoyl-3-pyridyl)methyl]-3-methyl-N-[[5-(trifluoromethyl)-2-pyridyl]methyl] quinoline-6-carboxamide] are > 1000 nM and 5.2 nM.
Taken in the same sequence, the figures for `CNC(=O)c1ccc(CN(Cc2ccc(C(F)(F)F)cn2)C(=O)c2ccc3nc(N)c(C)cc3c2)cc1` [Example 638, 2-amino-3-methyl-N-[[4-(methylcarbamoyl)phenyl]methyl]-N-[[5-(trifluoromethyl)-2-pyridyl]methyl] quinoline-6-carboxamide] were 200 nM and 1.9 nM.
Taken in the same sequence, the figures for `Cc1cc2cc(C(=O)N(Cc3cc(Cl)ccn3)CC(C)C)ccc2nc1N` [Example 639, 2-amino-N-[(4-chloro-2-pyridyl)methyl]-N-isobutyl-3-methylquinoline-6-carboxamide] were 580 nM and 12.2 nM.
For `Cc1cc2cc(C(=O)N(Cc3ncccc3Br)CC(C)C)ccc2nc1N` [Example 640, 2-amino-N-[(3-bromo-2-pyridyl)methyl] -N-isobutyl-3-methylquinoline-6-carboxamide], the IC50 in assay [1] (HCT116-MTAP null, 144 h) was 730 nM. The Ki in assay [2] was determined as 14.1 nM.
Taken in the same sequence, the figures for `Cc1cc2cc(C(=O)N(Cc3ccc(C(F)(F)F)cn3)C(C)C(C)O)ccc2nc1N` (centres unmarked) [Example 641, 2-amino-N-(2-hydroxy-1-methylpropyl)-3-methyl-N-[[5-(trifluoromethyl)-2-pyridyl]methyl] quinoline-6-carboxamide] were 920 nM and 13.1 nM.
Consider `Cc1cc2cc(C(=O)N(Cc3ccc(N4CCCC4)cc3)CC(C)C)ccc2nc1N` [Example 643, 2-amino-N-isobutyl-3-methyl-N-[(4-pyrrolidin-1-ylphenyl)methyl]quinoline-6-carboxamide], for which, in assay [2], the Ki was determined as 39.6 nM.
On the same count and under the same terms, the result for `Cc1cc2cc(C(=O)N(Cc3cccc(-n4cncn4)c3)CC(C)C)ccc2nc1N` [Example 644, 2-amino-N-isobutyl-3-methyl-N-[[3-(1,2,4-triazol-1-yl)phenyl]methyl] quinoline-6-carboxamide] reads 29.3 nM; that for `Cc1cc2cc(C(=O)N(CC#CCO)Cc3ccc(C(F)(F)F)cn3)ccc2nc1N` [Example 658, 2-amino-N-(4-hydroxybut-2-ynyl)-3-methyl-N-[[5-(trifluoromethyl)-2-pyridyl]methyl] quinoline-6-carboxamide], 12.6 nM.
Same read-out and setting: with `Cc1cc2cc(C(=O)N(Cc3ccc(C(F)(F)F)cn3)C(C)C(C)n3cccn3)ccc2nc1N` (centres unmarked) [Example 679, 2-amino-3-methyl-N-(1-methyl-2-pyrazol-1-yl-propyl)-N-[[5-(trifluoromethyl)-2-pyridyl]methyl] quinoline-6-carboxamide] the figure was 36.8 nM; with `Cc1cc2cc(C(=O)N(Cc3ccc(C(F)(F)F)cn3)C(CC(N)=O)C3CCOCC3)ccc2nc1N` (centres unmarked) [Example 682, 2-amino-N-(3-amino-3-oxo-1-tetrahydropyran-4-yl-propyl)-3-methyl-N-[[5-(trifluoromethyl)-2-pyridyl]methyl] quinoline-6-carboxamide], 23 nM.
On the same count and under the same terms, with `Cc1cc2cc(C(=O)N(Cc3ccc(C(F)(F)F)cn3)C3CC(C#N)C3)ccc2nc1N` (centres unmarked) [Example 697, 2-amino-N-(3-cyanocyclobutyl)-3-methyl-N-[[5-(trifluoromethyl)-2-pyridyl]methyl] quinoline-6-carboxamide] the figure was 36.5 nM; with `Cc1cc2cc(C(=O)N(Cc3ccc(C(F)(F)F)cn3)C3CC4(C3)CC(F)(F)C4)ccc2nc1N` [Example 698, 2-amino-N-(2,2-difluorospiro [3.3]heptan-6-yl)-3-methyl-N-[[5-(trifluoromethyl)-2-pyridyl]methyl] quinoline-6-carboxamide], 36.4 nM; with `Cc1cc2cc(C(=O)N(Cc3ccc(C(F)(F)F)cn3)C3CCCC3C#N)cnc2nc1N` (centres unmarked) [Example 700, 7-amino-N-(2-cyanocyclopentyl)-6-methyl-N-[[5-(trifluoromethyl)-2-pyridyl]methyl]-1,8-naphthyridine-3-carboxamide], 38.1 nM.
For `Cc1cc2cc(C(=O)N(Cc3ccc(C(F)(F)F)cn3)C3CCCC3C#N)ncc2nc1N` (centres unmarked) [Example 701, 2-amino-N-(2-cyanocyclopentyl)-3-methyl-N-[[5-(trifluoromethyl)-2-pyridyl]methyl]-1,7-naphthyridine-6-carboxamide], the Ki in assay [2] was 37.2 nM.
Same read-out and setting: the result for `Cc1cc2cc(C(=O)N(Cc3ccc(C(F)(F)F)cn3)C3CC3(C)C)ccc2nc1N` (centres unmarked) [Example 706, 2-amino-N-(2,2-dimethylcyclopropyl)-3-methyl-N-[[5-(trifluoromethyl)-2-pyridyl]methyl] quinoline-6-carboxamide] reads 31 nM.
